Assay [1] concerns the target Insulin-like growth factor 1 receptor (Homo sapiens) (UniProt P08069). Put plainly: Inhibition of human IGF1R catalytic domain expressed in baculovirus assessed as substrate phosphorylation using fluorescence-labelled peptides as substrate at 0.1 uM after 90 mins by microfluidic peptide phosphorylation assay.
The target in assay [2] is T1, Testis-specific serine/threonine-protein kinase 1 (Homo sapiens) (UniProt Q9BXA7).
T1 sequence (whole entry): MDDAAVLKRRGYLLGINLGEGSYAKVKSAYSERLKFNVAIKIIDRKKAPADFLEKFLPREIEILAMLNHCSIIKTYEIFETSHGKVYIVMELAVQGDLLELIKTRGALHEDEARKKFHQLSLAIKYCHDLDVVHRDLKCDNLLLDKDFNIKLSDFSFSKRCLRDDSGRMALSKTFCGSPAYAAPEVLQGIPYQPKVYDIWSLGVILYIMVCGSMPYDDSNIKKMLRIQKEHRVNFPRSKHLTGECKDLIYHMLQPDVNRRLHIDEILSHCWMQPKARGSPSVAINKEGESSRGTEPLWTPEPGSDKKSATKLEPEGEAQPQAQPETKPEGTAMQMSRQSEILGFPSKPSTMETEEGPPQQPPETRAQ
Put plainly: Inhibition of human full length TSSK1 expressed in baculovirus assessed as substrate phosphorylation using fluorescence-labelled peptides as substrate at 420 uM after 90 mins by microfluidic peptide phosphorylation assay.

For assay [3], the target named is T2, Serine/threonine-protein kinase Sgk1 (Homo sapiens) (UniProt O00141).
T2 sequence (whole entry): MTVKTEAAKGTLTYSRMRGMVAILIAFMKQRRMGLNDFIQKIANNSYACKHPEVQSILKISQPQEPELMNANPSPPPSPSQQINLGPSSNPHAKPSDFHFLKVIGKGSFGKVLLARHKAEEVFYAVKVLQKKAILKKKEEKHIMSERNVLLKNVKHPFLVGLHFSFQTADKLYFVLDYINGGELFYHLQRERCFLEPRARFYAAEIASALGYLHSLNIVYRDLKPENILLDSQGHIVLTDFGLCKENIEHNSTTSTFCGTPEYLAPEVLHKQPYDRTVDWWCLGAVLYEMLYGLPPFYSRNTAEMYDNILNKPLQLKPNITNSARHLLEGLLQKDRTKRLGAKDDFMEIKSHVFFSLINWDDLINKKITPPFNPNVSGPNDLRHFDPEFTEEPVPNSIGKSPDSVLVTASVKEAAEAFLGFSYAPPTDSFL
Put plainly: Inhibition of human truncated SGK1 expressed in baculovirus assessed as substrate phosphorylation using fluorescence-labelled peptides as substrate at 95 uM after 90 mins by microfluidic peptide phosphorylation assay.

The target in assay [4] is RAF proto-oncogene serine/threonine-protein kinase (Homo sapiens) (UniProt P04049). Put plainly: Inhibition of human truncated c-Raf expressed in baculovirus assessed as substrate phosphorylation using fluorescence-labelled peptides as substrate at 95 uM after 90 mins by microfluidic peptide phosphorylation assay.
Assay [5] concerns the target Ribosomal protein S6 kinase alpha-3 (Homo sapiens) (UniProt P51812). Put plainly: Inhibition of human full length RSK2 expressed in baculovirus assessed as substrate phosphorylation using fluorescence-labelled peptides as substrate at 9 uM after 90 mins by microfluidic peptide phosphorylation assay.
Assay [6] deals with Serine/threonine-protein kinase MARK2 (Homo sapiens) (UniProt Q7KZI7). Put plainly: Inhibition of human full length MARK2 expressed in baculovirus assessed as substrate phosphorylation using fluorescence-labelled peptides as substrate at 8 uM after 90 mins by microfluidic peptide phosphorylation assay.
Assay [7] deals with Tyrosine-protein kinase ABL1 (Homo sapiens), P00519 [H396P]. Put plainly: Inhibition of human truncated ABL H396P mutant expressed in baculovirus assessed as substrate phosphorylation using fluorescence-labelled peptides as substrate at 8 uM after 90 mins by microfluidic peptide phosphorylation assay.
In assay [8] the target is Rho-associated protein kinase 2 (Homo sapiens) (UniProt O75116). Put plainly: Inhibition of human ROCK2 catalytic domain expressed in baculovirus assessed as substrate phosphorylation using fluorescence-labelled peptides as substrate at […] after 90 mins by microfluidic peptide phosphorylation assay.
The target in assay [9] is Tyrosine-protein kinase Lck (Homo sapiens) (UniProt P06239). Put plainly: Inhibition of human full length LCK expressed in baculovirus assessed as substrate phosphorylation using fluorescence-labelled peptides as substrate at […] after 90 mins by microfluidic peptide phosphorylation assay.
For assay [10], the target named is MAP kinase p38 (Homo sapiens) (UniProt O15264+Q15759+Q16539+P53778). Put plainly: Inhibition of human full length p38 beta2 expressed in Escherichia coli cell assessed as substrate phosphorylation using fluorescence-labelled peptides as substrate at 1000 uM after 90 mins by microfluidic peptide phosphorylation assay.
The target in assay [11] is T3, Serine/threonine-protein kinase Sgk2 (Homo sapiens) (UniProt Q9HBY8).
T3 sequence (whole entry): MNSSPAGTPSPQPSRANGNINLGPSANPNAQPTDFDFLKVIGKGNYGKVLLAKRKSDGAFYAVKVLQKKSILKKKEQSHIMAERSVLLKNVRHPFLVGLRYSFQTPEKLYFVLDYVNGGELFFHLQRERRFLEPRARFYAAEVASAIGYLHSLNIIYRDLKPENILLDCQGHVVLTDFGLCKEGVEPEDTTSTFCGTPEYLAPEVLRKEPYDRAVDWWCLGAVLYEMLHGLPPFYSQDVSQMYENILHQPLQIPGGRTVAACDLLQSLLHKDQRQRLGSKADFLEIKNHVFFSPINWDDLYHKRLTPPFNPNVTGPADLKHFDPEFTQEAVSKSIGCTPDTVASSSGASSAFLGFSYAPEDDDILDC
Put plainly: Inhibition of human full length SGK2 expressed in baculovirus assessed as substrate phosphorylation using fluorescence-labelled peptides as substrate at 1000 uM after 90 mins by microfluidic peptide phosphorylation assay.

The target of assay [12] is Protein kinase C gamma type (Homo sapiens) (UniProt P05129). Put plainly: Inhibition of human truncated PKC gamma expressed in baculovirus assessed as substrate phosphorylation using fluorescence-labelled peptides as substrate at 0.06 uM after 90 mins by microfluidic peptide phosphorylation assay.
Assay [13] deals with Protein kinase C alpha type (Homo sapiens) (UniProt P17252). Put plainly: Inhibition of human truncated PKC alpha expressed in baculovirus assessed as substrate phosphorylation using fluorescence-labelled peptides as substrate at 70 uM after 90 mins by microfluidic peptide phosphorylation assay.

Molecules are shown by their SMILES.

RAF proto-oncogene serine/threonine-protein kinase (Homo sapiens), sequence (P04049 whole entry, the tested form may be a part): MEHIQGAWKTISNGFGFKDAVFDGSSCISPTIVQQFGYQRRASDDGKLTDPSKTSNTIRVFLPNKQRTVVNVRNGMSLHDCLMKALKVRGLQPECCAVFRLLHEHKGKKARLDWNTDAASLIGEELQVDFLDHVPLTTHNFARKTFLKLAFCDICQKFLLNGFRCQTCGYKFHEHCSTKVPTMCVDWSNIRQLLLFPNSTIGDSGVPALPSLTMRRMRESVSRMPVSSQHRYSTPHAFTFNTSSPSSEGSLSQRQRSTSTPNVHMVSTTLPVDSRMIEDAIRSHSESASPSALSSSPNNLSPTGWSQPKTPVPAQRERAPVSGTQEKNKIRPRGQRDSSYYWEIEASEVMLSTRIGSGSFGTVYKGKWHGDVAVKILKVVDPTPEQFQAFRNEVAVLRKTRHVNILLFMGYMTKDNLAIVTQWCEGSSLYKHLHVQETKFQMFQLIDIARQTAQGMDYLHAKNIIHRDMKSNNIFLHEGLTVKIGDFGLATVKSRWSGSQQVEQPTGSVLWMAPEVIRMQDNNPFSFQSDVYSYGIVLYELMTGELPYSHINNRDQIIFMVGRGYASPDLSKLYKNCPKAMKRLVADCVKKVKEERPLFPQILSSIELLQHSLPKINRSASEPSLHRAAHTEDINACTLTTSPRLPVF
Rho-associated protein kinase 2 (Homo sapiens), sequence (O75116 whole entry, looked up, the tested form may be a part): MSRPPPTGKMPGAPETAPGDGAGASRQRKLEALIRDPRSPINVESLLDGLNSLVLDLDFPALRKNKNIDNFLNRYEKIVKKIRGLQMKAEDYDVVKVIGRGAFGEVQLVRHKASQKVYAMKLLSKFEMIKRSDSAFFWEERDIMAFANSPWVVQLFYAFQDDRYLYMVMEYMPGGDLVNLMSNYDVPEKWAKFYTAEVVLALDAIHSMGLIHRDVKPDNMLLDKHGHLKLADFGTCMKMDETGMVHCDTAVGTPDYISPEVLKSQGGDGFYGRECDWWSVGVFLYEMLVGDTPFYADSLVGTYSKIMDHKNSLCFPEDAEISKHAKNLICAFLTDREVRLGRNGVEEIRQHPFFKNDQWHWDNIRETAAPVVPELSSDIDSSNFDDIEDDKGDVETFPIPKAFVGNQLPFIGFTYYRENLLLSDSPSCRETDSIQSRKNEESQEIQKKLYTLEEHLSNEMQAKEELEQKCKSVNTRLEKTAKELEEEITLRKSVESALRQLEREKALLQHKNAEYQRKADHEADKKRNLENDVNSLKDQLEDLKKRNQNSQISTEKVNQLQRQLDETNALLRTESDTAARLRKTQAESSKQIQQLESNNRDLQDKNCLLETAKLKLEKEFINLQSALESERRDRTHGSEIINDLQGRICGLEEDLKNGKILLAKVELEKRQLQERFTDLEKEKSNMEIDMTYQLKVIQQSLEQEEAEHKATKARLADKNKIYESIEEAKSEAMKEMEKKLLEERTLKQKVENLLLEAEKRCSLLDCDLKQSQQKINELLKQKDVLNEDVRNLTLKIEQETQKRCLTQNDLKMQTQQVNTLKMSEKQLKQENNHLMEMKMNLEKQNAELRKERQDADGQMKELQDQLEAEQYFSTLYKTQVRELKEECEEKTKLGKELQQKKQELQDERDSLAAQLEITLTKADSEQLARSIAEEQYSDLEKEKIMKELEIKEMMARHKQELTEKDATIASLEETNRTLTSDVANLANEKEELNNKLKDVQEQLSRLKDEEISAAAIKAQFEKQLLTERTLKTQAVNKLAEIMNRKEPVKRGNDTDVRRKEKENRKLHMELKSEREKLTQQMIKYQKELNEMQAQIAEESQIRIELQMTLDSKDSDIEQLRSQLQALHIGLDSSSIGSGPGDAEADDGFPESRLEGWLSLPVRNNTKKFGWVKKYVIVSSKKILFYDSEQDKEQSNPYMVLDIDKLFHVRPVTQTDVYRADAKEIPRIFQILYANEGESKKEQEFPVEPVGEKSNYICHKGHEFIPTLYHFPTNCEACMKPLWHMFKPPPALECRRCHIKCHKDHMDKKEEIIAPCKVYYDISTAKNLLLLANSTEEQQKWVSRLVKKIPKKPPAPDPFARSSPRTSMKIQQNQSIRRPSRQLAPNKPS
Tyrosine-protein kinase Lck (Homo sapiens), sequence (P06239 2-509 limits assumed): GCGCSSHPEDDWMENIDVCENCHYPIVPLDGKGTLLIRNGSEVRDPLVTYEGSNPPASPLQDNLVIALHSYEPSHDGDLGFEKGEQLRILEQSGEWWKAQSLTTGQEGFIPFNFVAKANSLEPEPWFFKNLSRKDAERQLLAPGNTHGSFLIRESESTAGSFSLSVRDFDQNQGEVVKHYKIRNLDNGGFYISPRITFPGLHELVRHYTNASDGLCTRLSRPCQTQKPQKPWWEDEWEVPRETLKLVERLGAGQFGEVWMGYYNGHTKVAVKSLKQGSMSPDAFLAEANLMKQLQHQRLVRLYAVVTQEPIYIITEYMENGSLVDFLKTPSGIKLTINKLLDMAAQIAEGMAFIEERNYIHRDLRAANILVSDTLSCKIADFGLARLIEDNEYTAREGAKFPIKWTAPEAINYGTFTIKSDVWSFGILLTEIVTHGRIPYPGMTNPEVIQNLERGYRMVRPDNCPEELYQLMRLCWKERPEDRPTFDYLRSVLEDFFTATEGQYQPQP
Serine/threonine-protein kinase MARK2 (Homo sapiens), sequence (Q7KZI7 whole entry, the tested form may be a part): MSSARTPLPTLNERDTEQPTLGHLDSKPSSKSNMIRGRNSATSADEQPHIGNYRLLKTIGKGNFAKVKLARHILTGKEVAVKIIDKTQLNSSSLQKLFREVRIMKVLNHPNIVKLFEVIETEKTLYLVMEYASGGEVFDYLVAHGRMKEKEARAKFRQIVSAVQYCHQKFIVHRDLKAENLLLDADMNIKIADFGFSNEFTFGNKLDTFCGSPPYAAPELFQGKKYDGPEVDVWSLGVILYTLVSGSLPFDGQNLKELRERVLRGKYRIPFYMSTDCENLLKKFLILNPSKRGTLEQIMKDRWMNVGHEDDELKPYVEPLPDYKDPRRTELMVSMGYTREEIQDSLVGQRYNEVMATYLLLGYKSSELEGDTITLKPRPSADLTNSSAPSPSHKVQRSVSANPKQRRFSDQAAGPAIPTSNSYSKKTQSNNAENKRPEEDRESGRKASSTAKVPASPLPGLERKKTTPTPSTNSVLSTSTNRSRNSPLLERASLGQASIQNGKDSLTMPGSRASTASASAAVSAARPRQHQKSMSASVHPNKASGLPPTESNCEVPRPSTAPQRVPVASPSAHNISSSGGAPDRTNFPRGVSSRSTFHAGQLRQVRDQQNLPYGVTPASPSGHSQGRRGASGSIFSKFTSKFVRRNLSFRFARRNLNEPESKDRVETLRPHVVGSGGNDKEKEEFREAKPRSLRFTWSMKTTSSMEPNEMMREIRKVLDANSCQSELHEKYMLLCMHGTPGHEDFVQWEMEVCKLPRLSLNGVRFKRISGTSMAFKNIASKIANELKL
Ribosomal protein S6 kinase alpha-3 (Homo sapiens), sequence (P51812 whole entry): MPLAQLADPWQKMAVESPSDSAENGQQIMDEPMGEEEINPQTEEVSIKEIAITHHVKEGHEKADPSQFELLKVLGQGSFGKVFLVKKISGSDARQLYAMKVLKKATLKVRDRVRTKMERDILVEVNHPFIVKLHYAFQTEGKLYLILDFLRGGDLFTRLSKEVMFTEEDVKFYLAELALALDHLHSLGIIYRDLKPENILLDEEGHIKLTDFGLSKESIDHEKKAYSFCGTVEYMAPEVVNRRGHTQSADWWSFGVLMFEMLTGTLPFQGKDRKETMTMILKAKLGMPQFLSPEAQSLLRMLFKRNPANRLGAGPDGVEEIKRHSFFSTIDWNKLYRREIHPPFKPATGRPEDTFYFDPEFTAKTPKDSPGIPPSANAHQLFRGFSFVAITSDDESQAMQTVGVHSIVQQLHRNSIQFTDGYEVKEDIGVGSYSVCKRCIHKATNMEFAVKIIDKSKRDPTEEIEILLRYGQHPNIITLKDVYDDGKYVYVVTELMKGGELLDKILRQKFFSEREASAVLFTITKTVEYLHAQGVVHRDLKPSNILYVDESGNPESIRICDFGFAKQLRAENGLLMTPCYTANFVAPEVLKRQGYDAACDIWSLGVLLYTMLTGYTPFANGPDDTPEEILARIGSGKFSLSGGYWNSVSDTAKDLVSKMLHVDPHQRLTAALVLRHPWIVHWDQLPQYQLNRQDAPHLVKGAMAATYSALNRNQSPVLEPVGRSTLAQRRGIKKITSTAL

Take `C[C@H](CN(C)C)Oc1nc(Nc2cc3cccc(Cl)c3cn2)cnc1C#N`: in assay [1], the inhibition was 9.5%.
For `c1nc(N2CCOCC2)c2nc[nH]c2n1`, in assay [2], the inhibition amounted to 71%.
In the case of `NCCc1ccc(-c2ncnc3[nH]cnc23)cc1`, the inhibition in [3] is 52.5%; in [4], 39.5%.
For `NCC1CN(c2ncnc3[nH]c4cnccc4c23)CCO1` (stereo not drawn), in assay [5], the inhibition is 95.5%.
Consider `NCC1CCN(c2ncnc3[nH]ccc23)CC1`, for which the figures for the inhibition in assay [6] and in [7] were 37% and 20.5%, respectively.
As to `COC(=O)c1cnc(Nc2cnc(C#N)cn2)cc1NCC1CCNCC1`, the inhibition in [8] turned out to be 2%; in assay [9], 5.5%.
For the molecule `c1cnc2[nH]ccc2c1`, the inhibition in [10] was determined as 0%; in assay [11], 64%.
With `NC1(Cc2ccc(Cl)cc2)CCN(c2ncnc3[nH]ccc23)CC1`, the inhibition in [12] worked out at 3.5%.
`CNCc1ccc(-c2ncnc3[nH]cnc23)cc1`: the inhibition in assay [13] amounted to 56%.

As usually defined, the inhibition is how much of the control response was suppressed.

(Values after ChEMBL document CHEMBL3132769, “Fragment growing to retain or alter the selectivity of anchored kinase hinge-binding fragments” (Medchemcomm, 2014).)
